Data from patent US7354955B2, “(2S)-amino(phenyl)acetic acid and derivatives as α2δ voltage-gated calcium channel ligands” (Abbott Laboratories, priority 2004, dated 2008).
Like-named read-outs stand apart in the source and are kept apart here.

Tests used:
gabapentin binding site = conditions: cited from earlier work
[1] = test system: mechanical allodynia in rats that had undergone spinal nerve ligation; assay: Analgesic effect: mechanical allodynia (von Frey) after L5/L6 spinal nerve ligation; conditions: oral, 60 minutes before von Frey testing; percentage of maximal protective effect relative to vehicle; Sprague Dawley rats
[2] = anti-convulsant drugs, background statement

COc1cc(CNC(=O)CCCC/C=C/C(C)C)ccc1O [capsaisin]
interaction with the gabapentin binding site (gabapentin binding site): do not interact

NCC1(CC(=O)O)CCCCC1 [Gabapentin]
EC50 [1]: 160 µmol/kg

C[C@]12N[C@H](Cc3ccccc31)c1ccccc12 [MK801]
interaction with the gabapentin binding site (gabapentin binding site): do not interact

ryanodine
interaction with the gabapentin binding site (gabapentin binding site): do not interact

N[C@H](C(=O)O)c1ccccc1 [(2S)-amino(phenyl)acetic acid]
EC50 [1]: 50 µmol/kg

NC(=O)N1c2ccccc2C=Cc2ccccc21 [carbamazepine]
competition for gabapentin binding (gabapentin binding site; [2]): do not compete

Cn1c(=O)c2c(ncn2C)n(C)c1=O [caffeine]
interaction with the gabapentin binding site (gabapentin binding site; ligands for other calcium channel subtypes, background statement): do not interact

CCC1(c2ccccc2)C(=O)NC(=O)NC1=O [phenobarbitone]
competition for gabapentin binding (gabapentin binding site): do not compete

O=C1NC(=O)C(c2ccccc2)(c2ccccc2)N1 [phenytoin]
competition for gabapentin binding (gabapentin binding site; [2]): do not compete

CN1C(=O)CN=C(c2ccccc2)c2cc(Cl)ccc21 [diazepam]
competition for gabapentin binding (gabapentin binding site): do not compete

COc1ccc(CCN(C)CCCC(C#N)(c2ccc(OC)c(OC)c2)C(C)C)cc1OC (centres unmarked) [verapamil]
interaction with the gabapentin binding site (gabapentin binding site): do not interact
